Values after ≈ are worked out from the molar mass of the structure shown. One block for each compound: values may come before it. Active and inactive are the calls of the source. The calls are words filed in the database; no cut-off is given here.
How the values were obtained:
Staphylococcus aureus = assay: Antibacterial activity against Staphylococcus aureus DSM11822 assessed as growth inhibition by measuring minimal concentration at OD600 by visual inspection with iron-limited media incubated for 24 hrs; format: functional
Escherichia coli [1] = assay: Antibacterial activity against Escherichia coli delta fepA assessed as growth inhibition by measuring minimal concentration at OD600 by visual inspection with iron-limited media incubated for 24 hrs; format: functional
Escherichia coli [2] = assay: Antibacterial activity against Escherichia coli delta […] delta fiu assessed as growth inhibition by measuring minimal concentration at OD600 by visual inspection with iron-limited media incubated for 24 hrs; format: functional
Escherichia coli [3] = assay: Antibacterial activity against Escherichia coli delta fepD assessed as growth inhibition by measuring minimal concentration at OD600 by visual inspection with iron-limited media incubated for 24 hrs; format: functional
Escherichia coli [4] = assay: Antibacterial activity against Escherichia coli delta fepA delta cirA delta fiu assessed as growth inhibition by measuring minimal concentration at OD600 by visual inspection with iron-limited media incubated for 24 hrs; format: functional
Escherichia coli [5] = assay: Antibacterial activity against Escherichia coli delta cirA assessed as growth inhibition by measuring minimal concentration at OD600 by visual inspection with iron-limited media incubated for 24 hrs; format: functional
Escherichia coli [6] = assay: Antibacterial activity against wild type Escherichia coli BW25113 assessed as growth inhibition by measuring minimal concentration at OD600 by visual inspection with iron-limited media incubated for 24 hrs; format: functional
Escherichia coli [7] = assay: Antibacterial activity against Escherichia coli delta fiu assessed as growth inhibition by measuring minimal concentration at OD600 by visual inspection with iron-limited media incubated for 24 hrs; format: functional
Enterococcus faecium = assay: Antibacterial activity against Enterococcus faecium DSM20477 assessed as growth inhibition by measuring minimal concentration at OD600 by visual inspection with iron-limited media incubated for 24 hrs; format: functional
Escherichia coli [8] = assay: Antibacterial activity against Escherichia coli delta exbB assessed as growth inhibition by measuring minimal concentration at OD600 by visual inspection with iron-limited media incubated for 24 hrs; format: functional
Escherichia coli [9] = assay: Antibacterial activity against Escherichia coli BW25113 assessed as growth inhibition by measuring minimal concentration at OD600 by visual inspection with iron-limited media incubated for 24 hrs; format: functional
Acinetobacter baumannii = assay: Antibacterial activity against Acinetobacter baumannii DSM30007 assessed as growth inhibition by measuring minimal concentration at OD600 by visual inspection with iron-limited media incubated for 24 hrs; format: functional
Escherichia coli [10] = assay: Antibacterial activity against Escherichia coli delta fepB assessed as growth inhibition by measuring minimal concentration at OD600 by visual inspection with iron-limited media incubated for 24 hrs; format: functional
Escherichia coli [11] = assay: Antibacterial activity against Escherichia coli delta fepA delta cirA assessed as growth inhibition by measuring minimal concentration at OD600 by visual inspection with iron-limited media incubated for 24 hrs; format: functional
Escherichia coli [12] = assay: Antibacterial activity against Escherichia coli delta cirA delta fiu assessed as growth inhibition by measuring minimal concentration at OD600 by visual inspection with iron-limited media incubated for 24 hrs; format: functional
Escherichia coli [13] = assay: Antibacterial activity against Escherichia coli delta tonB assessed as growth inhibition by measuring minimal concentration at OD600 by visual inspection with iron-limited media incubated for 24 hrs; format: functional
Escherichia coli [14] = assay: Recovery of growth in Escherichia coli BW25113 delta entA assessed as reversal of growth at 10 uM in presence of 0.1 uM iron(III) chloride hexahydrate by growth recovery assay; format: functional, organism-based
Escherichia coli [15] = assay: Antibacterial activity against Escherichia coli K-12 BW25113 delta exbB assessed as growth inhibition by measuring minimal concentration at OD600 by visual inspection measured after reintroduction of plasmid expressing exbB Q163 mutant with iron-limited media incubated for 24 hrs; format: functional
Escherichia coli [16] = assay: Antibacterial activity against Escherichia coli K-12 BW25113 delta cyoB assessed as growth inhibition by measuring minimal concentration at OD600 measured after reintroduction of plasmid expressing cyoB G269D mutant by visual inspection with iron-limited media incubated for 24 hrs; format: functional
Klebsiella pneumoniae = assay: Antibacterial activity against Klebsiella pneumoniae DSM11678 assessed as growth inhibition by measuring minimal concentration at OD600 by visual inspection with iron-limited media incubated for 24 hrs; format: functional, organism-based
Escherichia coli [17] = assay: Antibacterial activity against Escherichia coli K-12 BW25113 assessed as growth inhibition after 21 serial passages by measuring minimal concentration at OD600 by visual inspection with iron-limited media incubated for 24 hrs; format: functional
Pseudomonas aeruginosa = assay: Antibacterial activity against Pseudomonas aeruginosa DSM24068 assessed as growth inhibition by measuring minimal concentration at OD600 by visual inspection with iron-limited media incubated for 24 hrs; format: functional, organism-based
Escherichia coli [18] = assay: Antibacterial activity against Escherichia coli K-12 BW25113 delta cyoB assessed as growth inhibition by measuring minimal concentration at OD600 by visual inspection with iron-limited media incubated for 24 hrs; format: functional
Escherichia coli [19] = assay: Antibacterial activity against Escherichia coli K-12 BW25113 delta exbB assessed as growth inhibition by measuring minimal concentration at OD600 by visual inspection measured after reintroduction of plasmid expressing full length exbB with iron-limited media incubated for 24 hrs; format: functional
[20] = Metal chelating activity assessed as Fe3+-compound complex formation measured after 17 hrs by chrome azurol S dye based colorimetric assay
Escherichia coli [21] = assay: Drug uptake in Escherichia coli BW25113 delta entA assessed in membrane fraction pre-treated at 10 uM in presence of 0.1 uM iron(III) chloride hexahydrate by mass spectrometry based cell fractionation assay; format: functional, organism-based
Escherichia coli [22] = assay: Drug uptake in Escherichia coli BW25113 delta entA assessed in peri-plasmic fraction pre-treated at 10 uM in presence of 0.1 uM iron(III) chloride hexahydrate by mass spectrometry based cell fractionation assay; format: functional, organism-based
Escherichia coli [23] = assay: Drug uptake in Escherichia coli BW25113 delta entA assessed in cytoplasmic fraction pre-treated at 10 uM in presence of 0.1 uM iron(III) chloride hexahydrate by mass spectrometry based cell fractionation assay; format: functional, organism-based

SMILES: O=C(NCc1cc(CNC(=O)c2cccc(O)c2O)cc(CNC(=O)c2cccc(O)c2O)c1)c1cccc(O)c1O
Activity (Escherichia coli [14]): Active

SMILES: CC1(C)S[C@@H]2[C@H](NC(=O)[C@H](N)c3ccc(O)cc3)C(=O)N2[C@H]1C(=O)O [AMOXICILLIN]
MIC (Staphylococcus aureus): > 175 µM
MIC (Enterococcus faecium): 1.3 µM (≈ 0.475 µg/mL)
MIC (Escherichia coli [9]): 18 µM (≈ 6.58 µg/mL)
MIC (Acinetobacter baumannii): > 175 µM

SMILES: CC(=O)Oc1cccc(C(=O)NCc2cc(CNC(=O)c3cccc(OC(C)=O)c3OC(C)=O)c(NC(=O)CCCc3cn(CCC(=O)N[C@@H](C(=O)N[C@@H]4C(=O)N5[C@@H]4SC(C)(C)[C@@H]5C(=O)O)c4ccccc4)nn3)c(CNC(=O)c3cccc(OC(C)=O)c3OC(C)=O)c2)c1OC(C)=O
MIC (Staphylococcus aureus): 0.12 µM (≈ 0.166 µg/mL)
MIC (Escherichia coli [1]): 2.9 µM (≈ 4.01 µg/mL)
MIC (Escherichia coli [15]): > 12 µM
MIC (Escherichia coli [16]): 2.9 µM (≈ 4.01 µg/mL)
MIC (Escherichia coli [2]): 1.5 µM (≈ 2.07 µg/mL)
MIC (Escherichia coli [3]): 1.5 µM (≈ 2.07 µg/mL)
MIC (Escherichia coli [4]): > 12 µM
MIC (Escherichia coli [5]): 2.9 µM (≈ 4.01 µg/mL)
Activity (Klebsiella pneumoniae): inactive
Activity (Escherichia coli [6]): inactive
MIC (Escherichia coli [7]): 1.5 µM (≈ 2.07 µg/mL)
MIC (Enterococcus faecium): 0.62 µM (≈ 0.856 µg/mL)
MIC (Escherichia coli [17]): > 12 µM
MIC (Escherichia coli [8]): > 12 µM
Activity (Pseudomonas aeruginosa): inactive
MIC (Escherichia coli [18]): 2.9 µM (≈ 4.01 µg/mL)
MIC (Escherichia coli [9]): ≤ 0.09 µM
MIC (Escherichia coli [19]): 2.9 µM (≈ 4.01 µg/mL)
MIC (Acinetobacter baumannii): ≤ 0.09 µM
MIC (Escherichia coli [10]): 2.9 µM (≈ 4.01 µg/mL)
MIC (Escherichia coli [11]): 1.5 µM (≈ 2.07 µg/mL)
MIC (Escherichia coli [12]): 2.9 µM (≈ 4.01 µg/mL)
MIC (Escherichia coli [13]): > 12 µM

SMILES: CC(=O)Oc1cccc(C(=O)NCc2cc(CNC(=O)c3cccc(OC(C)=O)c3OC(C)=O)c(CNC(=O)c3cccc(OC(C)=O)c3OC(C)=O)c([N+](=O)[O-])c2)c1OC(C)=O
Activity (Escherichia coli [14]): Active

Further lines, with some results ahead:

MIC (Staphylococcus aureus): > 85 µM
MIC (Escherichia coli [1]): 0.17 µM (≈ 0.128 µg/mL)
MIC (Escherichia coli [2]): 0.66 µM (≈ 0.496 µg/mL)
MIC (Escherichia coli [3]): 0.083 µM (≈ 0.0624 µg/mL)
MIC (Escherichia coli [4]): > 21 µM
MIC (Escherichia coli [5]): 0.66 µM (≈ 0.496 µg/mL)
MIC (Escherichia coli [6]): 33 µM (≈ 24.8 µg/mL)
MIC (Escherichia coli [7]): 0.66 µM (≈ 0.496 µg/mL)
MIC (Enterococcus faecium): > 85 µM
MIC (Escherichia coli [8]): 5.3 µM (≈ 3.99 µg/mL)
MIC (Escherichia coli [9]): 0.042 µM (≈ 0.0316 µg/mL)
MIC (Acinetobacter baumannii): 0.053 µM (≈ 0.0399 µg/mL)
MIC (Escherichia coli [10]): 0.083 µM (≈ 0.0624 µg/mL)
MIC (Escherichia coli [11]): 0.17 µM (≈ 0.128 µg/mL)
MIC (Escherichia coli [12]): 21 µM (≈ 15.8 µg/mL)
MIC (Escherichia coli [13]): > 21 µM
SMILES: CC(C)(O/N=C(\C(=O)N[C@@H]1C(=O)N2C(C(=O)[O-])=C(C[N+]3(CCNC(=O)c4ccc(O)c(O)c4Cl)CCCC3)CS[C@H]12)c1csc(N)n1)C(=O)O [CEFIDEROCOL]

MIC (Staphylococcus aureus): 0.36 µM (≈ 0.583 µg/mL)
MIC (Enterococcus faecium): 0.62 µM (≈ 1 µg/mL)
MIC (Escherichia coli [9]): > 64 µM
MIC (Acinetobacter baumannii): > 39 µM
SMILES: CCCCCCCCCC(=O)N[C@@H](Cc1c[nH]c2ccccc12)C(=O)N[C@H](CC(N)=O)C(=O)N[C@@H](CC(=O)O)C(=O)N[C@@H]1C(=O)NCC(=O)N[C@@H](CCCN)C(=O)N[C@@H](CC(=O)O)C(=O)N[C@H](C)C(=O)N[C@@H](CC(=O)O)C(=O)NCC(=O)N[C@H](CO)C(=O)N[C@@H]([C@H](C)CC(=O)O)C(=O)N[C@@H](CC(=O)c2ccccc2N)C(=O)O[C@@H]1C

MIC (Staphylococcus aureus): > 46 µM
MIC (Enterococcus faecium): > 46 µM
MIC (Escherichia coli [9]): 1.4 µM (≈ 1.96 µg/mL)
MIC (Acinetobacter baumannii): 46 µM (≈ 64.3 µg/mL)
SMILES: CC(=O)Oc1cccc(C(=O)NCc2cc(CNC(=O)c3cccc(OC(C)=O)c3OC(C)=O)c(NC(=O)CCCc3cn(CCC(=O)N[C@@H](C(=O)N[C@@H]4C(=O)N5[C@@H]4SC(C)(C)[C@@H]5C(=O)O)c4ccc(O)cc4)nn3)c(CNC(=O)c3cccc(OC(C)=O)c3OC(C)=O)c2)c1OC(C)=O
Activity (Klebsiella pneumoniae): inactive
Activity (Pseudomonas aeruginosa): inactive

Activity [20]: Active
SMILES: O=C(NCc1cc(CNC(=O)c2cccc(O)c2O)c([N+](=O)[O-])c(CNC(=O)c2cccc(O)c2O)c1)c1cccc(O)c1O
Drug uptake (Escherichia coli [21]): Active
Drug uptake (Escherichia coli [22]): Active
Activity (Escherichia coli [14]): Active
Drug uptake (Escherichia coli [23]): inactive

— ChEMBL document CHEMBL4831541, “Antibiotic Conjugates with an Artificial MECAM-Based Siderophore Are Potent Agents against Gram-Positive and Gram-Negative Bacterial Pathogens” (2021)
